# What was measured:
# [1] = Pairwise competitive crystallization with L1, Na-based system
# Experimental: (§1) The experiments described below were generally conducted as described above and as described in Rajbanshi et al. 2012.
# To assess the size recognition of the crystalline capsule in the Na-based system, similar pairwise competitive crystallization experiments were performed with L1 (two equivalents) and Na2SO4/Na2SeO4 mixtures (one equivalent each) in H2O/MeOH. […] The SO4^2−/SeO4^2− molar ratio found in the crystalline solid resulting from the competitive crystallization was 31.3, indicating strong size recognition for SO4^2−. […] The increased SO4^2−/SeO4^2− selectivity in the Na-based system may be attributed to the smaller size of the Na capsule (d(N . . . N)=9.51 Å) compared to the Mg capsule (d(N . . . N)=9.65 Å), which favored the smaller sulphate anion.
# In comparison with the good SO4^2−/SeO4^2− selectivity observed in the Na-based crystallizations, the competitive crystallization experiment involving a Na2SO4/Na2CrO4 mixture under similar conditions yielded crystals with a SO4^2−/CrO4^2− ratio of only 2.0. […] As a result, binding of chromate is inherently favored due to its stronger hydrogen bond acceptor ability compared to sulphate, a factor that apparently offsets much of the size discrimination effect.
# [2] = Pairwise competitive crystallization with L1, K-based system
# Description: as §1
# For the K-based system, pairwise competitive crystallizations with L1 gave SO4^2/SeO4^2− selectivity and SO4^2−/CrO4^2− selectivity ratios of 13.3 and 1.1, respectively. The potassium capsule was the smallest of the three systems (d(N . . . N)=9.21 Å).
# [3] = Sulfate separation and L1 recycling, Mg-based system, Simulant 1
# Experimental: For comparison purposes, solid L1.2H2O (478 mg, 0.88 mmol) and Mg(NO3)2 (113 mg, 0.44 mmol) were added to 10 mL of Simulant 1 solution (Table 1) containing 0.44 mmol SO4^2−. The mixture was stirred magnetically at room temperature for 48 h, and the resulting solid was filtered, washed with water, and dried. The identity of the crystalline product, MgSO4(L1)2(H2O)6 (Compound 3) was confirmed by PXRD and FTIR spectroscopy.
# To recover and recycle L1, crystals of Compound 3 (457 mg, 0.368 mmol) were dissolved in 1 M HNO3 (1 mL) to form a clear solution to which was added 1 M NaOH (2 mL). The mixture was stirred at room temperature overnight, and the resulting solid was filtered, washed with water, and dried. Yield: 388 mg. […] The solid mixture of L1.2H2O and Mg(OH)2 could be recycled by adding it to a fresh solution of the simulant, thereby initiating another separation cycle.
# The recovered solid L1 and magnesium hydroxide were then added to a fresh simulant solution to start another cycle. Such cycling was repeated twice more. […] This established that the ligand is robust enough to survive at least three recovery cycles. Although this magnesium-based system is not applicable to the full alkaline conditions encountered in the nuclear waste, the ease of operation coupled with high efficiency and good ligand recyclability opens the door to other industrial sulfate separations from simpler, less basic aqueous solutions.
# [4] = Relative solubility in water; format: physicochemical; settings: pure water
# Description: The final crystalline solid was isolated in 90% yield, and its PXRD and FTIR spectra corresponded to those of pure Compound 1 (FIG. 4). The relatively long reaction time required to convert L1 to Compound 1 appeared to proceed via a three-phase process involving slow dissolution of L1 and its recrystallization into Compound 1.
# [5] = Mg-based system (Rajbanshi et al. 2012); cited from earlier work
compound,measurement,setting,value
O=C(NCCN(CCNC(=O)Nc1cccnc1)CCNC(=O)Nc1cccnc1)Nc1cccnc1 [Compound L1],molar ratio of sulphate over competing carbonate in crystals,"[1]; L1 2 equiv, Na2SO4 and Na2CO3 1 equiv each, H2O/MeOH, elemental analysis",11.5
same,molar ratio of sulphate over competing sulphite in crystals,"[1]; L1 2 equiv, Na2SO4 and Na2SO3 1 equiv each, H2O/MeOH, elemental analysis",5.9
same,SO4^2−/CrO4^2− ratio in crystals,[1]; Na2SO4/Na2CrO4 mixture,2.0
same,SO4^2−/CrO4^2− selectivity ratio,[2],1.1
same,SO4^2−/SeO4^2− selectivity ratio,[2],13.3
same,recovery of sulfate,"[3]; Simulant 1, first listed cycle",99.6%
same,recovery of sulfate,"[3]; Simulant 1, second listed cycle",99.4%
same,recovery of sulfate,"[3]; Simulant 1, third listed cycle",97.9%
same,solubility relative to Compound 1,[4],less soluble than Compound 1
same,SO4^2−/SeO4^2− ratio,[5],3

# — US9260326B2, “Selective oxoanion separation using a tripodal ligand” (UT-BATTELLE, LLC, priority 2012, dated 2016)
